The values that follow come from US7122214B2, “Drynaria extractions for treating osteoporosis and their extraction process” (priority 2000, dated 2006).

The subject of this assay is Tretinoin-induced osteoporosis in rats. As to the kind of experiment: Bone density in Tretinoin-induced osteoporosis model in rats. In kind it is in vivo, Wistar rats. Here is the method:
Observe the effect of RDE in this invention on both Tretinoin-induced and Ovariectomized (OVX) osteoporosis model in rats.
RDE was produced according to Example 1 (Per gram extract is equivalent to 66.67 g crude drugs). RDE was dissolved in distilled water to a concentration of 0.47 mg/ml before administration. And administration was conducted via gastric tube. Tretinoin is manufactured by Chongqing Huabang Pharmaceuticals, Ltd. and was suspended to the concentration of 1.5% with distilled water. Control drug α-D3 was manufactured by TEVA PHARMACEUTICALS, Israel, which is solved in distilled water to the concentration of 0.03 μg/ml before using and administrated orally via gastric tube.
Tretinoin-induced osteoporosis rats: sixty female W istar rats, 16-week-old, mean weight 234.85±15.32 g. Ovariectomized rats: sixty female Wistar rats, 12-week-old, mean weight 183.46±12.45 g. All the animals are obtained from the Experimental Animal Center of Chinese Military Medical Academy.
Bone Biomechanics Rheometer was manufactured by Stevens Company, Great Britain (model QTS-25). X ray Bone-density-meter was manufactured by Norland Company, USA (model XR-26). The others are all obtained from market.
4. Dose Selections and Groups: • (1) Tretinoin-induced group: Sixty rats are randomly allocated to six groups (10 rats per group). Blank group: control animals received PSS/d (physiological saline solution) alone. […]
The dose administered to each animal is calculated from the individual body weight recorded at the end of each week. […]
7. […] Bone biomechanics measurements: three point bending tests of left thighbone of each animal are performed; load-deformation curve is recorded to measure the biomechanics index. […] Bone structural mechanics parameters: breaking load, elastic load, maximum radius, elastic radius, maximum energy absorption; bone material mechanics parameters: firstly calculated the Femoral Section Inertial Moment, then computed the maximum strain, elastic strain, maximum stress, elastic stress and elastic modulus according to the formulae. […]

Where [1] appears, read: α-D3 0.002 μg/kg/d oral 14 days after tretinoin 70 mg/kg/d 14 days.

Consider `C=C1/C(=C\C=C2/CCC[C@]3(C)[C@@H]([C@H](C)CCCC(C)C)CC[C@@H]23)C[C@@H](O)C[C@@H]1O` [α-D3], for which the “femoral bone density compared with model group” value (Tretinoin-induced osteoporosis rats (Table 9)) is given as “increased obviously”. In addition, under setting [1], the “Bone density Lumber spine” value was 0.135 ± 0.005 g/cm^2 and the Bone density thighbone came out at 0.137 ± 0.004 g/cm^2.
